Patent US8846704B2, “Thiopyrimidine-based compounds and uses thereof” (YM Biosciences Austraila Pty Ltd, priority 2007, dated 2014)

Columns and labels:
Assay type in all cases: cell-based
BaF3 wild-type cells = test: Cellular screening, BaF3 wild-type cells, Alamar Blue; conditions: Mus musculus, 40 hr, read-out: BAF3wt IC50_nM
Description: (§1) For screening purposes, compounds were diluted in 96 well plates at a concentration of 20 μM. Plates were warmed at 37° C. for 30 minutes before the assay was performed.
(§2) The growth factor dependant myelomonocytic cell line BaF3 bearing the pTET-off plasmid (Clontech) was transfected with either pTELJAK2 or pTELJAK3, and the transfected cells were selected for growth-factor independent cell growth. The BaF3 wild-type cells were cultured in DMEM containing 10% FCS, 10% WEHI 3B conditioned medium. The BaF3 TELJAK cells ([…]) were cultured in DMEM 10% Tet-System Approved FBS (without WEHI 3B conditioned medium).
(§3) Cell suspensions were prepared by harvesting cells from culture (the cells used in this test were in late log phase growth with high viability.) Cells were diluted in the appropriate growth medium, as described above, to 1.1× final concentration (from 50,000 cell/mL to 200,000 cell/mL, depending on cell line).
(§4) Compounds to be tested were added (10 μL, 10× final concentration) to a flat bottomed 96-well plate. The cellular suspension (90 μL per well) was then added, and the plate incubated for 40 hr at 37° C., 5% CO2. Alamar Blue 10 μL per well was added and the plates returned to the incubator for a further 4-6 hours. The plates were then read at 544 nm.

BaF3 TELJAK3 cells = molecular target: T1, BaF3 TELJAK3 cells (Homo sapiens, UniProt P52333); test: Cellular screening, BaF3 TEL:JAK3 cells, Alamar Blue; conditions: 40 hr, read-out: BafT_J3 IC50_nM
T1 construct: fused on or other part: TEL (ETV6) N-terminal part, coding nucleotides 1-487, serves as the oligomerising partner; It is fused through a Sal I site to the JAK3 kinase domain and expressed from pTRE2 in BaF3 cells bearing pTET-off; P41212 (Transcription factor ETV6)
T1 sequence (P52333 1-1124): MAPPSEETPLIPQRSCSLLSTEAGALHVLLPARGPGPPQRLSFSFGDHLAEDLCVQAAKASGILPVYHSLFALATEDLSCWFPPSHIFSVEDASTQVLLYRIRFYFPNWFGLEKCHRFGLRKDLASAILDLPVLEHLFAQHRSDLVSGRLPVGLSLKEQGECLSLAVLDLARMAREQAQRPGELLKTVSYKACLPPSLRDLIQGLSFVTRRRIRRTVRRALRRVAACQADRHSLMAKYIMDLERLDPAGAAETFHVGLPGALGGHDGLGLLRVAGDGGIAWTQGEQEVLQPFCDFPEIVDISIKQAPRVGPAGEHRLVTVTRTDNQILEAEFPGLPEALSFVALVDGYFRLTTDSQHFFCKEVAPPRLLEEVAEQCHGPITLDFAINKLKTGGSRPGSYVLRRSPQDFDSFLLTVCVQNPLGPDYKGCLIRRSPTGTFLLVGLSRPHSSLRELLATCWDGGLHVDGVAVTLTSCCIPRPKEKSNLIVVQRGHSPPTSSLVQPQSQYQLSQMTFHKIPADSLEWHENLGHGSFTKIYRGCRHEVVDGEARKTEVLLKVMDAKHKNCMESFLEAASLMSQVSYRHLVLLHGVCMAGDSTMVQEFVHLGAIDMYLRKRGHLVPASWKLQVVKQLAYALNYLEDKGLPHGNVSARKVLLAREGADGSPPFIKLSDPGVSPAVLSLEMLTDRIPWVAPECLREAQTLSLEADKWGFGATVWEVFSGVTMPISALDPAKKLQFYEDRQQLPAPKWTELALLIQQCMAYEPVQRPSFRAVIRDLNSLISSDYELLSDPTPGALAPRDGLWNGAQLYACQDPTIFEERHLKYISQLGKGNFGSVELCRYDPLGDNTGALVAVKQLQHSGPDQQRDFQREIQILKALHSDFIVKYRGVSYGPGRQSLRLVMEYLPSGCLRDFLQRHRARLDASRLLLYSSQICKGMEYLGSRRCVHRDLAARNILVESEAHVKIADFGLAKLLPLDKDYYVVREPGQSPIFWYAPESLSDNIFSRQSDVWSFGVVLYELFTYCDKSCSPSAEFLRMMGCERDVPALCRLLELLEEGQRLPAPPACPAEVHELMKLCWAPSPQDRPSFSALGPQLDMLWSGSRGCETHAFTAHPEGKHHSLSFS
Description: as §1
The coding region encompassing nucleotides 1-487 of TEL was amplified by PCR using the oligonucleotides STEL (5′-GGAGGATCCTGATCTCTCTCGCTGTGAGAC-3′) [SEQ ID NO 14] and 3TEL (5′-AGGC GTCGACTTCTTCTTCATGGTTCTG-3′) [SEQ ID NO 15] and U937 mRNA as a template. A […] restriction site was incorporated into the STEL primer, and a Sal I restriction site was incorporated into the 3TEL primer. The regions encompassing the kinase domain of JAK2 (nucleotides 2994-3914; JAK2F 5′-ACGC GTCGACGGTGCCTTTGAAGACCGGGAT-3′ [SEQ ID NO 16]; JAK2R 5′-ATAGTTTAGCGGCCGCTCAGAATGAAGGTCATTT-3′) [SEQ ID NO 17] and JAK3 (nucleotides 2520-3469; JAK3F 5′-GAAGTCGACTATGCCTGCCAAGACCCCACGATCTT-3′) [SEQ ID NO 18] were generated by PCR using Taq DNA polymerase (Gibco/BRL) and […] as a template. A Sal I restriction site was incorporated into the forward primer of JAK2 and JAK3, a Not I site was incorporated into the JAK2 reverse primer and a Xba I site was added to the reverse primer of JAK3.
The TEL/Jak3 fusion was prepared by ligation of the JAK3 Sal I/Not I cleaved kinase domain PCR product with the BamH I/Sal I restriction digested TEL product, followed by ligation of the ligation product into the BamH I/Not I digested pTRE2, to give the TEL/Jak3 fusion plasmid pTELJAK3.
as §2, §3, §4

CTLL2 = test: Cellular screening, CTLL2 cells, Alamar Blue; conditions: Mus musculus, CTLL-2, read-out: CTLL2 IC50_nM
Description: as §3, §4

Compound: C=CC(=O)Nc1cccc(Nc2nccc(Sc3ccc(OC)cc3)n2)c1 [Compound 42, N-(3-(4-(4-methoxyphenylthio)pyrimidin-2-ylao)phenyl)acrylamide]
- IC50 (BaF3 wild-type cells): < 20 µM
- GI50 (BaF3 TELJAK3 cells): < 5 µM
- IC50 (CTLL2): < 5 µM

Compound: C=CC(=O)Nc1ccc(Sc2nc(Nc3ccc(N4CCC(O)C4)cc3)ncc2C)cc1 (stereo not drawn) [Compound 295, N-(4-(2-(4-(3-hydroxypyrrolidin-1-yl)phenylao)-5-methylpyrimidin-4-ylthio)phenyl)acrylamide]
- IC50 (BaF3 wild-type cells): > 20 µM
- GI50 (BaF3 TELJAK3 cells): < 1 µM
- IC50 (CTLL2): < 1 µM

Compound: O=C(/C=C\Cl)Nc1ccc(Sc2ccnc(Nc3ccc(N4CCOCC4)cc3)n2)cc1 [Compound 346, (Z)-3-chloro-N-(4-(2-(4-morpholinophenylao)pyrimidin-4-ylthio)phenyl)acrylamide]
- IC50 (BaF3 wild-type cells): < 1 µM
- GI50 (BaF3 TELJAK3 cells): < 1 µM
- IC50 (CTLL2): < 20 µM

Compound: N#Cc1nnnn1Cc1ccc(Sc2ccnc(Nc3ccc(N4CCOCC4)cc3)n2)cc1 [Compound 155, 1-(4-(2-(4-morpholinophenylao)pyrimidin-4-ylthio)benzyl)-1H-tetrazole-5-carbonitrile]
- IC50 (BaF3 wild-type cells): < 20 µM
- GI50 (BaF3 TELJAK3 cells): < 20 µM
- IC50 (CTLL2): < 5 µM

Compound: C=CC(=O)Nc1ccc(Sc2nc(Nc3ccc(N4CCOCC4)cc3)ncc2C)cc1CC [Compound 260, N-(2-ethyl-4-(5-methyl-2-(4-morpholinophenylao)pyrimidin-4-ylthio)phenyl)acrylamide]
- IC50 (BaF3 wild-type cells): > 20 µM
- GI50 (BaF3 TELJAK3 cells): < 5 µM
- IC50 (CTLL2): < 5 µM

Compound: C=CC(=O)Nc1ccc(Sc2nc(Nc3ccc(N4CCOCC4)cc3)ncc2C)cc1C [Compound 259]
- IC50 (BaF3 wild-type cells): < 20 µM
- GI50 (BaF3 TELJAK3 cells): < 1 µM
- IC50 (CTLL2): < 1 µM

Compound: C=CC(=O)Nc1cccc(Nc2nccc(Sc3ccccn3)n2)c1 [Compound 2, N-(3-(4-(pyridin-2-ylthio)pyrimidin-2-ylamino)phenyl)acrylamide]
- IC50 (BaF3 wild-type cells): < 5 µM
- GI50 (BaF3 TELJAK3 cells): < 1 µM
- IC50 (CTLL2): < 5 µM

Compound: C=CC(=O)N(C)c1ccc(Sc2nc(Nc3ccc(N4CCOCC4)cc3)ncc2C)cc1 [Compound 173, N-methyl-N-(4-(5-methyl-2-(4-morpholinophenylao)pyrimidin-4-ylthio)phenyl)acrylamide]
- IC50 (BaF3 wild-type cells): < 20 µM
- GI50 (BaF3 TELJAK3 cells): < 1 µM
- IC50 (CTLL2): < 1 µM

Compound: C=CC(=O)Nc1ccc(Sc2nc(Nc3ccc(OCCN4CCOCC4)cc3)ncc2C)cc1 [Compound 290, N-(4-(5-methyl-2-(4-(2-morpholinoethoxy)phenylao)pyrimidin-4-ylthio)phenyl)acrylamide]
- IC50 (BaF3 wild-type cells): < 5 µM
- GI50 (BaF3 TELJAK3 cells): < 1 µM
- IC50 (CTLL2): < 1 µM

Compound: C=CC(=O)Nc1ccc(Sc2nc(Nc3ccc(C)c(Br)c3)ncc2C)cc1 [Compound 242, N-(4-(2-(3-bromo-4-methylphenylao)-5-methylpyrimidin-4-ylthio)phenyl)acrylamide]
- IC50 (BaF3 wild-type cells): > 20 µM
- GI50 (BaF3 TELJAK3 cells): < 20 µM
- IC50 (CTLL2): > 20 µM

Compound: C=CC(=O)Nc1ccc(Sc2nc(Nc3cccc(N4CCN(C)CC4)c3)ncc2C)cc1 [Compound 243, N-(4-(5-methyl-2-(3-(4-methylpiperazin-1-yl)phenylao)pyrimidin-4-ylthio)phenyl)acrylamide]
- IC50 (BaF3 wild-type cells): < 5 µM
- GI50 (BaF3 TELJAK3 cells): < 1 µM
- IC50 (CTLL2): < 1 µM

Compound: N#Cc1nnn(Cc2ccc(Sc3ccnc(Nc4ccc(N5CCOCC5)cc4)n3)cc2)n1 [Compound 156, 2-(4-(2-(4-morpholinophenylao)pyrimidin-4-ylthio)benzyl)-2H-tetrazole-5-carbonitrile]
- IC50 (BaF3 wild-type cells): < 5 µM
- GI50 (BaF3 TELJAK3 cells): < 5 µM
- IC50 (CTLL2): < 5 µM

Compound: C=CC(=O)Nc1ccc(Sc2ccnc(Nc3ccc(S(N)(=O)=O)c(OC)c3)n2)cc1 [Compound 374, N-(4-(2-(3-methoxy-4-sulfamoylphenylao)pyrimidin-4-ylthio)phenyl)acrylamide]
- IC50 (BaF3 wild-type cells): < 5 µM
- GI50 (BaF3 TELJAK3 cells): < 1 µM
- IC50 (CTLL2): < 20 µM

Compound: C=CC(=O)Nc1ccc(Sc2ccnc(Nc3cccc(O)c3)n2)cc1 [Compound 277, N-(4-(2-(3-hydroxyphenylao)pyrimidin-4-ylthio)phenyl)acrylamide]
- IC50 (BaF3 wild-type cells): > 20 µM
- GI50 (BaF3 TELJAK3 cells): < 1 µM
- IC50 (CTLL2): < 1 µM

Compound: C=CC(=O)Nc1ccc(Sc2nc(Nc3ccc(OCCCN(CC)CC)cc3)ncc2C)cc1 [Compound 291, N-(4-(2-(4-(3-(diethylao)propoxy)phenylao)-5-methylpyrimidin-4-ylthio)phenyl)acrylamide]
- IC50 (BaF3 wild-type cells): < 5 µM
- GI50 (BaF3 TELJAK3 cells): < 1 µM
- IC50 (CTLL2): < 1 µM

Compound: Cc1cnc(Nc2cccc(N3CCN(C)CC3)c2)nc1Sc1ccc(N)cc1 [Compound 245, 4-(4-aophenylthio)-5-methyl-N-(3-(4-methylpiperazin-1-yl)phenyl)pyrimidin-2-ae]
- IC50 (BaF3 wild-type cells): < 1 µM
- GI50 (BaF3 TELJAK3 cells): < 1 µM
- IC50 (CTLL2): < 5 µM

Compound: C=CC(=O)NCc1cccc(Sc2ccnc(Nc3ccc(N4CCOCC4)cc3)n2)c1 [Compound 112, N-(3-(2-(4-morpholinophenylamino)pyrimidin-4-ylthio)benzyl)acrylamide]
- IC50 (BaF3 wild-type cells): > 20 µM
- GI50 (BaF3 TELJAK3 cells): < 20 µM
- IC50 (CTLL2): < 20 µM

Compound: C=CC(=O)Nc1ccc(Sc2nc(Nc3ccc(N4CCOCC4)nc3)ncc2C)cc1 [Compound 254, N-(4-(5-methyl-2-(6-morpholinopyridin-3-ylao)pyrimidin-4-ylthio)phenyl)acrylamide]
- IC50 (BaF3 wild-type cells): < 5 µM
- GI50 (BaF3 TELJAK3 cells): < 1 µM
- IC50 (CTLL2): < 1 µM

Compound: C=CC(=O)N(C)c1ccc(Sc2nc(Nc3ccc(N4CCOCC4)cc3)ncc2Br)cc1 [Compound 261, N-(4-(5-bromo-2-(4-morpholinophenylao)pyrimidin-4-ylthio)phenyl)-N-methylacrylamide]
- IC50 (BaF3 wild-type cells): > 20 µM
- GI50 (BaF3 TELJAK3 cells): < 1 µM
- IC50 (CTLL2): < 1 µM

Compound: C=CC(=O)Nc1ccc(Nc2nccc(SC)n2)cc1 [Compound 13, N-(4-(4-(methylthio)pyrimidin-2-ylao)phenyl)acrylamide]
- IC50 (BaF3 wild-type cells): > 20 µM
- GI50 (BaF3 TELJAK3 cells): > 20 µM
- IC50 (CTLL2): > 20 µM

Compound: NCc1cccc(Sc2ccnc(Nc3ccc(N4CCOCC4)cc3)n2)c1 [Compound 75, 4-(3-(aomethyl)phenylthio)-N-(4-morpholinophenyl)pyrimidin-2-ae]
- IC50 (BaF3 wild-type cells): < 20 µM
- GI50 (BaF3 TELJAK3 cells): < 20 µM
- IC50 (CTLL2): < 20 µM
